Measurements reported in ChEMBL document CHEMBL1141419, “N-(5-Fluoro-2-phenoxyphenyl)-N-(2-[(131)I]iodo-5-me thoxybenzyl)acetamide: a potent iodinated radioligand for the peripheral-type benzodiazepine receptor in brain” (J Med Chem, 2007).

What was measured:
[1] = Ratio of drug level in olfactory bulb against striatum in Sprague-Dawley rat after 30 mins; assay type: ADME, tissue-based; details: in vivo, 0.5 h
[2] = Ratio of drug level in choroids plexus against striatum in Sprague-Dawley rat after 30 mins; assay type: ADME, tissue-based; details: in vivo, 0.5 h
[3] = Stability in iv dosed ddy mouse brain after 30 min; assay type: ADME, organism-based; details: read-out: Stability
Rattus norvegicus = species on record: Rattus norvegicus; assay: Displacement of [11C]flumazenil from CBR in Sprague-Dawley rat brain
Translocator protein [4] = target: T1, Translocator protein (Rattus norvegicus, UniProt P16257); assay: Displacement of [11C]PK-11195 from PBR in Sprague-Dawley rat brain; assay type: tissue-based
T1 sequence (P16257 whole entry, looked up): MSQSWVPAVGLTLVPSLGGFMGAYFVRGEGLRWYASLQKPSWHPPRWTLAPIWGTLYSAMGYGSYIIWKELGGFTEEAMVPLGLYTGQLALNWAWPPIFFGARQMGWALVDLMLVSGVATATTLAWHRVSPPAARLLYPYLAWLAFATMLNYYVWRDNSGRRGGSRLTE

[5] = Distribution coefficient, log D at pH 7.4 by shake flask method; assay type: physicochemical; details: octanol/water
Translocator protein [6] = target: T1, Translocator protein; assay: Displacement of [11C]DAA1106 from PBR in Sprague-Dawley rat brain; assay type: tissue-based

SMILES	Ratio [1]	Ratio [2]	remaining at 0.5 h [3]	IC50 (Rattus norvegicus)	IC50 (Translocator protein [4])	logD [5]	IC50 (Translocator protein [6])
COc1ccc([131I])c(CN(C(C)=O)c2cc(F)ccc2Oc2ccccc2)c1	1.5	3.2	90%				
CCC(C)N(C)C(=O)c1cc2ccccc2c(-c2ccccc2Cl)n1 (centres undefined)				> 10000 nM			
COc1ccc(I)c(CN(C(C)=O)c2cc(F)ccc2Oc2ccccc2)c1				> 10000 nM	4.4 nM	4.42	7.8 nM

Further lines, results first:

Ratio [1]	Ratio [2]	remaining at 0.5 h [3]	IC50 (Rattus norvegicus)	IC50 (Translocator protein [4])	logD [5]	IC50 (Translocator protein [6])	SMILES
			> 10000 nM	60.1 nM	4.03	69.2 nM	COc1ccc(OC)c(CN(C(C)=O)c2cc(I)ccc2Oc2ccccc2)c1
			> 10000 nM	1.3 nM			COc1ccc(OC)c(CN(C(C)=O)c2cc(F)ccc2Oc2ccccc2)c1
